Experimental data published in patent US10543185B2, “Method for treating idiopathic pulmonary fibrosis” (The University of Chicago, priority 2015, dated 2020).
“Also recorded” adds a separate entry of the source.

Key:
[1] = test system: patients with idiopathic pulmonary fibrosis (IPF); experiment: PANTHER-IPF clinical trial cohort: secondary genotype-stratified survival analysis, NAC or PAN versus placebo; format: in vivo, human; settings: for Composite Endpoint, %: 10% FVC decline, hospitalization or transplantation; for Treatment-Specific Composite Endpoint Risk, HR / Multivariable Cox interaction model coefficient, therapy term / Multivariable Cox interaction model coefficient, SNP*therapy interaction term: adjusted for age, gender; for Treatment-Specific Composite Endpoint Risk, HR: FVC (% predicted) and DLCO (% predicted); for Multivariable Cox interaction model coefficient, therapy term / Multivariable Cox interaction model coefficient, SNP*therapy interaction term: composite endpoint-free survival, FVC and DLCO; for Progression-Free Survival HR (95% CI) / Hospitalization-Free Survival HR (95% CI): NAC vs placebo
Description: Single nucleotide polymorphisms (SNPs) within TOLLIP and MUC5B are associated with idiopathic pulmonary fibrosis (IPF) susceptibility and survival. Both genes play critical roles in lung host defense, a process that can be influenced by oxidative stress and modulated by N-acetylcysteine (NAC). Applicants set out to determine whether SNPs within TOLLIP and MUC5B modify the efficacy of NAC therapy in patients with IPF. To achieve this, secondary analysis was completed of the PANTHER-IPF clinical trial (n=154) and an independent replication cohort (n=405) composed of patients from the INSPIRE clinical trial and University of Chicago. SNPs within TOLLIP (rs5743890/rs5743894/rs5743854/rs3750920) and MUC5B ([…]) were genotyped. Multivariable Cox regression with interaction analysis was performed followed by genotype-stratified models for significant interaction SNPs to determine genotype-specific survival associated with NAC therapy. A composite endpoint of death, FVC decline, hospitalization or transplantation was used.
The PANTHER cohort consists of individuals enrolled in the IPFnet randomized clinical trial comparing three treatments: prednisone/azathioprine/N-acetylcysteine (PAN) combination therapy, N-acetylcysteine (NAC) monotherapy and placebo. […] Enrollment resumed for the NAC and placebo arms from January to July 2012, with study completion in 2013. Clinical and genetic data for patients providing informed consent to genetic testing were used to conduct the analysis. Patients were followed for up to 72 weeks after randomization.
To minimize the effects of population stratification, only participants that self-declared a non-Hispanic white ethnicity were included in the analysis. Demographic and clinical information extracted from the datasets included age, gender, race/ethnicity, treatment arm, pulmonary function testing (PFT) including forced vital capacity (FVC) and diffusion capacity for carbon monoxide (DLCO) and outcomes, including death, >10% decline in FVC, hospitalization and lung transplantation.
The primary analysis tested whether statistical interaction was present between SNPs of interest and NAC therapy with regard to composite endpoint-free survival, defined as time from trial enrollment to death, ≥10% FVC decline, hospitalization or transplantation. Interaction was formally tested with a multivariable Cox regression model that included the following variables: SNP genotype, NAC therapy, and a SNP*NAC interaction term, age, gender, FVC (% predicted) and DLCO (% predicted). Statistical interaction was considered present when the Wald z-statistic for SNP*NAC interaction term corresponded to a p-value <0.01, which adjusts for multiple testing by Bonferroni correction. Interaction detected by this method was then further explored by constructing genotype-stratified multivariable Cox models to determine genotype-specific endpoint risk associated with NAC therapy. Based on SNP distributions, an additive allelic model was assumed for rs3750920 (TOLLIP) and a dominant model for rs5743890 (TOLLIP), rs5743894 (TOLLIP), rs5743854 (TOLLIP) and rs35705950 (MUC5B). Each model was checked to ensure that the proportional hazards assumption was met.
Of the 341 patients enrolled in the PANTHER trial, 315 self-reported a non-Hispanic white ethnicity (FIG. 2). Of those 315 individuals, 154 consented to genetic testing and were included in the primary analysis. Among genotyped patients, fifty-four patients received placebo therapy and […] patients received NAC therapy. Baseline demographic and clinical characteristics between non-Hispanic white genotyped (n=154) and non-genotyped (n=161) patients stratified by treatment group are shown in Table 1. […]

[2] = test system: patients with idiopathic pulmonary fibrosis (IPF); settings: previous reports (Martinez et al., N Engl J Med. 2014); cited from earlier work
[3] = PANTHER genotyped patients, NAC arm (n = 60)
[4] = PANTHER non-genotyped patients, NAC arm (n = 61)

Compound: CC(=O)N[C@@H](CS)C(=O)O [NAC, (2R)-2-acetamido-3-sulfanylpropanoic acid]
- Death, % [1, 3]: (1.7) %
- FVC Decline ≥10%, % [1, 3]: (18.3) %
- Hospitalization, % [1, 3]: (13.3) %
- Transplant, % [1, 3]: (5) %
- Composite Endpoint, % ([1]; PANTHER genotyped patients, NAC arm (n = 60), death): (31.7) %
- Death, % [1, 4]: (4.9) %
- FVC Decline ≥10%, % [1, 4]: (27.9) %
- Hospitalization, % [1, 4]: (14.8) %
- Transplant, % [1, 4]: (1.6) %
- Composite Endpoint, % ([1]; PANTHER non-genotyped patients, NAC arm (n = 61), death): (42.6) %
- Treatment-Specific Composite Endpoint Risk, HR ([1]; genotyped PANTHER patients): 0.92
- Multivariable Cox interaction model coefficient, therapy term ([1]; model with rs3750920 (TOLLIP)): 1.34
- Multivariable Cox interaction model coefficient, therapy term ([1]; model with rs5743890 (TOLLIP)): 0.17
- Multivariable Cox interaction model coefficient, therapy term ([1]; model with rs5743894 (TOLLIP)): 0.45
- Multivariable Cox interaction model coefficient, therapy term ([1]; model with rs35705950 (MUC5B)): 0.91
- Treatment-Specific Composite Endpoint Risk, HR ([1]; non-genotyped PANTHER patients): 1.31
- Progression-Free Survival HR (95% CI) ([1]; rs3750920 (TOLLIP) CC genotype, death, 10% FVC decline or transplant): 1.27 (0.21-7.55)
- Hospitalization-Free Survival HR (95% CI) ([1]; rs3750920 (TOLLIP) CC genotype, death, hospitalization or transplant): 3.74 (0.35-39.80)
- Hospitalization-Free Survival HR (95% CI) ([1]; rs3750920 (TOLLIP) CT genotype): 0.45 (0.10-2.15)
- Progression-Free Survival HR (95% CI) ([1]; rs3750920 (TOLLIP) CT genotype): 0.63 (0.17-2.30)
- Progression-Free Survival HR (95% CI) ([1]; rs3750920 (TOLLIP) TT genotype): 0.09 (0.01-0.76)
- Multivariable Cox interaction model coefficient, SNP*therapy interaction term ([1]; rs3750920 (TOLLIP) interaction): −1.47
- Multivariable Cox interaction model coefficient, SNP*therapy interaction term ([1]; rs5743890 (TOLLIP) interaction): −1.17
- Hospitalization-Free Survival HR (95% CI) ([1]; rs5743894 (TOLLIP) AA genotype): 1.43 (0.44-4.70)
- Progression-Free Survival HR (95% CI) ([1]; rs5743894 (TOLLIP) AA genotype): 1.68 (0.58-4.90)
- Hospitalization-Free Survival HR (95% CI) ([1]; rs5743894 (TOLLIP) AG/GG genotype): 0.21 (0.02-1.99)
- Multivariable Cox interaction model coefficient, SNP*therapy interaction term ([1]; rs5743894 (TOLLIP) interaction): −1.42
- Hospitalization-Free Survival HR (95% CI) ([1]; rs35705950 (MUC5B) GG genotype): 1.25 (0.15-10.30)
- Progression-Free Survival HR (95% CI) ([1]; rs35705950 (MUC5B) GG genotype): 3.72 (0.69-20.16)
- Hospitalization-Free Survival HR (95% CI) ([1]; rs35705950 (MUC5B) GG/TT genotype as printed in Table 7 (text: GT or TT)): 0.49 (0.15-1.58)
- Multivariable Cox interaction model coefficient, SNP*therapy interaction term ([1]; rs35705950 (MUC5B) interaction): −1.40
- Benefit of therapy in patients with IPF, unselected by genotype [2]: no benefit; also recorded: did not provide benefit; also recorded: ineffective
